Measurements published in patent publication EP0377642B1, “HERBICIDES FOR WEED CONTROL IN RICE” (E.I. DU PONT DE NEMOURS AND COMPANY, priority 1987, dated 1989).

Test system: Ludwigia linifolia
Test: Herbicidal efficacy with Bensulfuron methyl and 2,4-D in Thailand (Table 19)
Assay type: in vivo
Conditions: 13 days after treatment
Method in brief: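 Hand-sprayer application, field; rice crop transplanted or direct seeded; test herbicide alone or in mixtures; locations across Southeast Asia and US.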

Measured: % CONTROL OR INJURY LL

COC(=O)c1ccccc1CS(=O)(=O)NC(=O)Nc1nc(OC)cc(OC)n1 [Bensulfuron methyl, methyl 2-[[[[[(4,6-dimethoxy-2-pyrimidinyl)amino]carbonyl]amino]sulfonyl]methyl]benzoate]
100%: 10 GAI/HA | 15 GAI/HA | 20 GAI/HA
